These results are taken from patent publication US20070275953A1 (priority 2003, published 2007).

A word on the CC50: it is the concentration that lowers cell viability or growth by half. A low value points to greater toxicity to the cells. As usually defined, the melting point is the temperature of the solid-liquid transition.

Series [1] has as its target T1, HIV-1 reverse transcriptase (Human immunodeficiency virus type 1 group M subtype B, UniProt P04585).
T1 construct: fixed-time assay for HIV-1 reverse transcriptase RNA dependent DNA polymerase activity; RT was purchased from Calbiochem; purchased Calbiochem CAL382129-500
Put plainly: HIV-1 in vitro reverse transcriptase activity (fixed-time RNA dependent DNA polymerase assay). Format: biochemical. The note with it: residual RT activity, compound at 10 μM; RT activity without compound set at 100%. How it is done:
For the in vitro inhibition studies of the HIV-1 reverse transcriptase activity, stock solutions of the compounds of the present invention were prepared in dimethyl sulfoxide at a final concentration of 10 mM and kept at room temperature. Nevirapine was purchased from Boehringer Ingelheim. Efavirenz was received from the NIH AIDS Research and Reference Reagent Program.
In vitro inhibition studies used a fixed-time assay for HIV-1 reverse transcriptase RNA dependent DNA polymerase activity. RT was purchased from Calbiochem (ref CAL382129-500). One unit of RT corresponds to the amount of enzyme which incorporates one nanomole of [^3H]TTP in 10 minutes at 37° C.
Assays were performed in a final volume of 50 μl. […] Reaction mixtures were incubated at 37° C. for 10 min. The incorporation rate was determined by a standard trichloroacetic acid precipitation procedure (adapted from Current protocols in molecular biology. Eds Wiley, MGH Harvard medical school) and liquid scintillation counting using a Wallac scintillation counter.
The in vitro activity of the compounds, at a final concentration of 10 μM, on the reverse transcriptase (RT) activity of HIV-1 is derivable from the relative (%) reduction in RT activity. Hereby, the RT activity in the absence of any of the compounds is set at 100%.

Series [2] has as its system HIV-1 with WT (wild type) RT in P4 cells. The experiment in a line: Anti-HIV assay on P4 cell line, WT RT. Format: cell-based. As to conditions: P4 cell line, WT RT; for EC50: read-out: EC50 WT. How it is done: (§1) For the antiviral and the cytotoxicity assays, the drugs were diluted in complete DMEM medium. In these experiments, drugs were diluted in triplicate wells in a 96-well plate in six, 5 fold serial dilutions.
Two days later, co-cultivation with SupT1 cells (a human T-cell lymphoma cell line) was initiated to facilitate rapid production of progeny virions. Production of virus was measured by using the Innotest HIV Antigen mAb p24 kit (Innogenetics). At the peak of production cultures were harvested and filtered. The virus stocks were stored at −80° C. until used.
Anti-HIV activity and cytotoxicity of the compounds were tested on a P4 cell line. […] The P4 cells were cultured in complete DMEM medium supplemented with 10% fetal bovine serum (FBS), 0.5% of Penicillin/Streptomycin and G418 at 0.5 mg/ml. Exponentially growing cells were trypsinized, centrifuged and split twice weekly at 5.10^4 cells/ml.
The P4 cells are HIV-infectible Hela-CD4 cells that carry the bacterial lacZ gene under the control of the HIV-1 long terminal repeat (LTR). In this cell line, transcription of the LacZ gene is driven by the HIV-1 LTR. […] In other words, in this system, the expression level of the β-galactosidase gene is proportional to the viral replication.
Briefly, in the anti-HIV assay 100 Ål of P4 cells were plated in 96-well plate at a concentration of 0.4 10^5 cells/ml and incubated at 37° C., 5% CO2. After 48 h, the medium was removed and 100 Ål of the different drugs dilutions were added to the cells. Four hours after the addition of the drugs all cells were infected with equal amount of cell-free virus, corresponding to 100 ng of HIV p24 antigen. After 48 h of incubation at 37° C., 5% CO2, β-galactosidase activity was measured using chlorophenol red-β-D-galactopyranoside assays.
Each assay was performed a minimum of three times. The 50% effective concentration (Ec50) was calculated from each dose response curve using the CurveExpert 1.3 software.

The nature of series [3]: Cytotoxicity (CC50), MTT assay on P4 cells. Format: cell-based. The note with it: human. How it is done: as §1
(§2) The 50% cytotoxic concentration (CCso) was determined using a protocol adapted from Pauwels et al. (1988. J. Virol. Methods 20(4):309-21). Briefly, flat bottom 96-well plates were filled with 50 μl of complete medium containing 5.10^3 P4 cells. 2 hours later 50 μl of drug solution were added to the cells. Drugs (dissolved in DMEM, see above) were diluted in six, 5-fold serial dilutions from stock solutions in triplicate wells of a 96-well plate. Cells and compounds were incubated at 37° C. in growth medium for 3 days. Cell viability was determined by MTT assays using the Roche Cell Proliferation KIT. The absorbance (λ=570 nm) was measured on a Benchmark™ Microplate Reader (Biorad) and compared with 12 cell control replicates (no drug added). Each assay was performed at least three times for a total of at least nine replicate wells. This method detects both cytostatic and cytolytic effects of drugs.
In general terms: Formazan colour is commonly taken as a measure of viable cells.

Series [4] has as its system HIV-1 with WT (wild type) RT in MT4 cells. Put plainly: Anti-HIV assay on MT4 cell line, WT RT. Format: cell-based. How it is done: (§3) Wurzburg Jurkat T cells (subclone JR) were transfected with 10 μg of the circularly permuted infectious molecular clone HIVNL4-3 (Adachi et al., 1986. J. Virol, 59 (2), p 284-291). Two days later, co-cultivation with SupT1 cells (a human T-cell lymphoma cell line) was initiated to facilitate rapid production of progeny virions. Production of virus was measured by using the Innotest HIV Antigen mAb p24 kit (Innogenetics). At the peak of production cultures were harvested and filtered. The virus stocks were stored at −80° C. until used.
Anti-HIV activity of the compounds was tested on MT-4 cell line. The MT-4 cell line (Larder et al. 1989. Sciences, Vol. 243 p 1731) was received from the NIH AIDS Research and Reference Reagent Program. These cells were cultured in RPMI medium supplemented with 10% fetal bovine serum (FBS), and 1% Penicillin/Streptomycin. The cultures were split regularly to keep cells densities between 0.3 to 1.2 10^6 cells/ml.
The MT-4 cells rapidly die upon infection by HIV. In this system there is an inverse correlation between cells survival and the amount of viral replication.
Briefly, in the anti-HIV assay exponentially growing MT-4 cells were infected with HIV-1. 100 μl of infected MT-4 cells were seeded in 96-well plate at a concentration of 0.4 10^5 cells/ml, and 100 μl of the different drugs dilutions were added to the cells. After 4 days of incubation at 37° C., 5% CO2, cells survival was measured using MTS (3-(4-5-dimethylthiazol-2-yl)-5-(−(3-carboxymethoxyphenyl)-2-(4-sulfophenyl)-2H-tetrazolium) assays. This compound is reduced by viable cells in a colored soluble formazan salt.
The absorbance was measured on a Benchmark™ Microplate Reader (Biorad) (λ=490 nm) and compared with 12 cell control replicates (nor virus nor drug added) and 12 virus control wells (no drug added). Each assay was performed a minimum of three times. The 50% effective concentration (EC50) was calculated from each dose response curve using the CurveExpert 1.3 software.

Series [5] has as its system HIV-1 with WT (wild type) RT in PBMC. The experiment in a line: Anti-HIV assay on PBMC, WT RT (p24). Format: cell-based. How it is done: as §3
Anti-HIV activity of the compounds was tested on Peripheral Blood Mononuclear Cells (PBMCs). These cells were separated from the blood of healthy donor using established procedures. PBMCs were cultured in RPMI medium supplemented with 10% fetal bovine serum (FBS), 1% Penicillin/Streptomycin and 20 U/ml of Interleukin-2.
PBMCs isolated from the blood of healthy donor contain CD4^+ T-lymphocytes which are one of the main targets of HIV in infected individuals.
Briefly, in the anti-HIV assay PBMCs, activated with phytohemagglutinin, were infected with HIV-1. 100 μl of infected PBMCs were seeded in 96-well plate at a concentration of 1 10^5 cells/ml, and 100 μl of the different drugs dilutions were added to the cells. After 4 days of incubation at 37° C., 5% CO2, cells cultures supernatants were collected. The amount of the viral capsid protein p24 in the supernatants was measured using the Innotest HIV Antigen mAb P24 kit (Innogenetics).

Series [6] has as its target T1, HIV-1 reverse transcriptase. Put plainly: RT inhibition as a function of preincubation time with the RT. The format is biochemical. An excerpt: Z122 seems to be an irreversible inhibitor of the reverse transcriptase.
The target is the same in series [7]. The experiment in a line: RT activity after separation of unbound compound on micro-spin desalting column. The format is biochemical. The note with it: after preincubation with RT. How it is done:
After the preincubation, the unbound Z122 and the RT were separated using a micro-spin desalting column.

For another series, the system named is P4 cells. The experiment in a line: Cytotoxicity (CC50), MTT assay on P4 cells. As to conditions: 3 days. The format is cell-based. How it is done: as §1, §2
Series [8] concerns HIV-1 with WT (wild type) RT in TZM-bl cells. Put plainly: Anti-HIV assay on TZM-bl cell line, WT RT. Format: cell-based. How it is done: as §3
(§4) Anti-HIV activity and cytotoxicity of the compounds were tested on the TZM-b1 cell line. The TZM-b1 cell line (Wei et al. 2002. Antimicrob. Agents Chemother. Vol. 46, p 1896-1905) was received from the NIH AIDS Research and Reference Reagent Program. These cells were cultured in complete DMEM medium supplemented with 10% fetal bovine serum (FBS), and 1% Penicillin/Streptomycin. Exponentially growing cells were trypsinized, centrifuged and split twice weekly at 5 10^4 cells/ml.
(§5) The anti-HIV assay with TZM-b1 cells is essentially the same as described above with P4 cells. The main difference between the two cell lines is that the TZM-b1 cells express at their surface both the CD4 and CCR5 proteins, acting as receptor and co-receptor for HIV entry, respectively (Wei et al. 2002. Antimicrob. Agents Chemother. Vol. 46, p 1896-1905). This feature makes the cells very sensitive to infection by the virus. The TMZ-b1 cells were infected with equal amount of cell-free virus, corresponding to 10 ng of HIV p24 antigen. This amount is ten times lower than the amount used to infect the P4 cells.

In series [9] the test system is HIV-1 mutant Cys188RT in TZM-bl cells. The experiment in a line: Anti-HIV assay on TZM-bl cells, Cys188RT mutant. The format is cell-based. The note with it: TZM-bl, mutant Cys188RT; read-out: EC50 Cys188RT TZM-bl.
Text: (§6) In order to introduce mutation(s) at the level of the pol gene coding for the RT in the pNL4-3 plasmid containing the complete viral genome (Adachi et al., 1986. J. Virol., Vol. 59 p 284-291) we used the “Quick change mutagenesis kit” (Stratagene). The following mutations were separately introduced in pNL4-3: L100I, K103N, V108I, Y181C, Y188C, and the double mutations K103N/V108I. These mutations were chosen because of the resistance that they confer to existing NNRTI. The production procedure of the mutant viral stocks is identical to the one described above.
as §4, §5

In series [10] the test system is HIV-1 mutant Cys181RT in TZM-bl cells. The experiment in a line: Anti-HIV assay on TZM-bl cells, Cys181RT mutant. Format: cell-based. The note with it: TZM-bl, mutant Cys181RT; read-out: EC50 Cys181RT TZM-bl.
Text: as §6, §4, §5

In series [11] the test system is HIV-1 mutant Asn103/Ile108RT in TZM-bl cells. The experiment in a line: Anti-HIV assay on TZM-bl cells, Asn103/Ile108RT double mutant. The format is cell-based. As to conditions: TZM-bl, double mutant Asn103/Ile108RT; read-out: EC50 Asn103/Ile108RT TZM-bl.
Text: as §6, §4, §5

Molecules are shown by their SMILES. Where two headings read alike, the source gives them in different places. Where only a bound is given, the exact number is not on record here.

Turning to `CCc1c(C)[nH]c(=O)c(CSCCO)c1OC1CC(C)CC(C)C1` (centres unmarked) [Z121, 5-ethyl-6-methyl-4-[(3,5-dimethylcyclohexyl)oxy]-3-{[(2-hydroxyethyl)sulfanyl]methyl}pyridine-2(1H)-one], the melting point lay in the range of 133 to 134 °C. Moreover, the “Relative (%) RT activity in vitro (compound added at 10 μM)” value in [1] stood at 1.4%. The EC50 in [2] (Human immunodeficiency virus 1) is under 1 nM. In series [2], the “SI (selectivity index = CC50/EC50)” value is over 27000. In addition, the CC50 at 3 days in series [3] is 27000 nM. The compound also displayed an EC50 in [4] (Human immunodeficiency virus 1) of 14 nM. Moreover, in [5] (Human immunodeficiency virus 1), the EC50 is under 1 nM. In [6], the “dependence of RT inhibition on time of (pre)incubation with the RT” value was “independent of the preincubation time”. In series [7], the “change in RT activity after separation of unbound compound (micro-spin desalting column)” value is listed as “significant increase in the RT activity”.
Regarding `CCc1c(C)[nH]c(=O)c(CSCCOC(=O)CCl)c1OC1CC(C)CC(C)C1` (centres unmarked) [Z122], the “Relative (%) RT activity in vitro (compound added at 10 μM)” value in [1] came to 39.1%. The EC50 in [2] is 1 nM; in [4], under 1 nM; in [5], under 1 nM. Further, half-maximal cytotoxicity in the series with P4 cells (CC50) was put at 27500 nM. In addition, the “dependence of RT inhibition on time of (pre)incubation with the RT” value in series [6] is reported as “increases with respect to the time of incubation”. In addition, in series [7], the “change in RT activity after separation of unbound compound (micro-spin desalting column)” value was “did not observe any increase in the RT activity”.
Turning to `CCc1c(C)[nH]c(=O)c(CC)c1OC1CC(C)CC(C)C1` (centres unmarked) [Z167], the EC50 in series [8] is under 1 nM; in series [9] it was under 1 nM; in series [10], 7 nM; in series [11], 129 nM.
